How the values were obtained:
Type in all cases: cell-based, human
[1] = test system: IκBα (NF-κB activation) in A549 cells; test: Western blot of IκBα phosphorylation and degradation (NF-κB activation) in A549 cells; conditions: loxoribine 10 μg/ml or Poly U 10 μg/ml
Procedure: FIG. 3 TLR7 and TLR8 lead to IκBα phosphorylation, but not degradation. A549 cells were untreated or treated with TNF-α (10 ng/ml) (A, B), loxoribine (10 μg/ml) (C, D), or Poly U (10 μg/ml) (E, F) for the indicated periods of time. The cell lysates were analyzed by immunoblot with anti-phospho-specific IκBα, anti-IκBα and anti-actin antibodies (A, C, E). Quantification of the bands was realized using Image J software (B, D, F). Histograms represent the intensity of each band observed in the blots at the indicated time point and are expressed in arbitrary units normalized to actin intensity (relative intensity) both for phospho-IκBα and IκBα. Results are representative of three independent experiments.
A549 cells (1.10^6 cells) were starved for 4 hours in medium containing 2% FCS, and then stimulated with loxoribine, PolyU, or TNFα (10 ng/ml) for different periods of time as indicated. Cells were lysed in 50 mM Tris-HCl, pH 7.5, 150 mM NaCl, 2 mM EDTA, 0.5% triton X100, 2 mM Na3VO4, 10 mM NaF, and 10 mM sodium pyrophosphate supplemented with a complete protease inhibitor cocktail (Boehringer, Paris, France). Protein contents in the cell lysates were quantified using the quick start Bradford protein assay kit (Biorad, Marnes-La-Coquette, France) to ensure that all samples contained similar amounts of protein. Proteins (30 μg) were resolved in 10% Tris-glycine polyacrylamide gels (Invitrogen, Cergy Pontoise, France) and transferred to PVDF immobilon-P membranes (Millipore, Molsheim, France). Blots were probed with monoclonal antibody against phospho-IκBα (Cell Signaling Technology, Danvers, USA), total IκBα, and actin (Santa Cruz, Le Perray en Yvelines, France).
In order to determine if the TLR7 and 8 expressed by lung tumor cell lines were able to induce intracellular signaling pathways, we studied NF-κB activation in response to stimulation with TNFα, loxoribine (homodimeric TLR7 ligand), or Poly U (homodimeric TLR8 ligand). […] In contrast TLR7 or 8 stimulation led to atypical NF-κB activation. […] Furthermore, we also observed that the kinetics of IκBα phosphorylation were dependent on the stimulus. On the one hand, TNFα stimulation induced two waves of IκBα phosphorylation; the first one after ten minutes was associated with IκBα degradation, and the second one after sixty minutes was not associated with IκBα degradation. On the other hand, we observed that TLR stimulation induced only a phosphorylation of IκBα, with a maximum phosphorylation obtained after thirty minutes without degradation of IκBα.

[2] = test system: 1549, H1355 and SK-MES cells; test: Chemoresistance by colony formation assay; conditions: stimulated with Loxoribine 100 μM and/or polyU 10 μg/ml on days 0, 3, 6, 9
Procedure: Alternatively, chemoresistance was assessed by the colony formation assay. In this assay, 1549, H1355 and SK-MES cells were seeded in 6-well plates (500 cells per well) and incubated for 15 days at 37° under 5% CO2. The cells were left unstimulated or stimulated 100 μM Loxoribine or with 10 μg/ml single-stranded polyU RNA (InvivoGen) on days 0, 3, 6 and 9. On day 12, different anti-cancer agents were added at the respective LD50 (cisplatin and carboplatin 100 μM, navelbine 50 μM, doxorubicine 2 nM). On day 15, the wells ware washed with PBS, and stained with 6% (vol/vol) glutaraldehyde, 0.5% (wt/vol) crystal violet in water for 30 minutes. The cells were washed and the colonies of more than 50 cells counted. Cell survival was calculated as follows: number of colonies after chemotherapy/number of cells seeded on day 0×plating efficiency, where the plating efficiency is number of colonies/number of cells seeded.

A549 and SK-MES cells = test: Transcriptomic analysis of 182 genes (Taq Man Low Density Array); conditions: 6 h stimulation; versus unstimulated cells
Procedure: FIG. 6 TLR7 and 8 induce regulation of gene transcription. A549 or SK-MES cells were cultured for 6 h in the presence of loxoribine, Poly U, or Gardiquimod. Total RNA was extracted and analyzed for the expression of 182 genes using Taq Man Low Density Array technology. All genes with a value greater than 35 (CT) were excluded from the analysis. The ΔCT values for the expression of all genes were calculated by subtraction of the CT value of the 18S housekeeping gene. The ΔΔCT values were obtained by subtraction of the ΔCT values for unstimulated cells from those obtained for TLR7- or 8-stimulated cells. The fold increase (arbitrary unit) was obtained by 2^−ΔΔCT. Values were then clustered using the Genesis Software.
Total RNA was extracted from A549 or SK-MES cells stimulated with loxoribine, Poly U, or Gardiquimod for 6 h or from purified human lung cancer cells using the RNeasy isolation-kit RNA (Qiagen, Courtaboeuf, France). The integrity and the quantity of the RNA were evaluated with a bioanalyzer-2100 (Agilent Technologies). All samples were assessed for gene expression analysis using the Taq Man Low-Density Array angiogenesis and immune panel (Applied Biosystem). The RT-PCR experiments were carried-out according to the manufacturer's instructions (Applied-Biosystems). Quantitative real-time TaqMan-PCR was performed using Low-Density-Arrays and the 7900 robotic real-time PCR-system (Applied-Biosystems). The 18S primers and probes were used as internal controls. Data were analyzed using the SDS Software v2.2 (Applied-Biosystems). The ΔCT values were calculated for each gene by subtraction of the CT value of the 18S housekeeping gene from the CT of the gene of interest. The ΔΔCT values were obtained by subtraction of the ΔCT values for unstimulated cells from the […]. The fold increase (arbitrary unit) was obtained by 2^−ΔΔCT.

Compound | time at which IκBα was phosphorylated (maximum phosphorylation) [1] | resistance of colonies to combined anti-cancer agents [2] | genes down-regulated in both SK-MES and A549 cells (A549 and SK-MES cells) | genes up-regulated in A549 cells, but down-regulated in SK-MES cells (A549 and SK-MES cells) | genes up-regulated in SK-MES, but down-regulated in A549 cells (A549 and SK-MES cells) | genes up-regulated in both SK-MES and A549 cells (A549 and SK-MES cells)
C=CCn1c(=O)n([C@@H]2O[C@H](CO)[C@@H](O)[C@H]2O)c2nc(N)[nH]c(=O)c21 [loxoribine, 7-allyl-7,8-dihydro-8-oxo-guanosine] | thirty | more resistant to treatment with combined anti-cancer agents | Prolactin (PRL), CD80, Fibronectin-1 (FN-1), A Disintegrin And Metalloproteinase with ThromboSpondin motif 1 (ADAMTS1), and Serpin Peptidase Inhibitor Clade C1 (SERPINC1) | Angiopoietin like 3 (ANGPTL3), Serpin Peptidase Inhibitor Clade F1 (SERPINF1), and Angiopoietin 1 (ANGPT1) | ANGPTL1, Platelet Factor 4 (PF4), and fms related tyrosine kinase 4 (FLT4) | Bcl-2, CCR4, and Vasohibin-1 (VASH-1)
Poly U | thirty | more resistant to treatment with combined anti-cancer agents | Prolactin (PRL), CD80, Fibronectin-1 (FN-1), A Disintegrin And Metalloproteinase with ThromboSpondin motif 1 (ADAMTS1), and Serpin Peptidase Inhibitor Clade C1 (SERPINC1) | Angiopoietin like 3 (ANGPTL3), Serpin Peptidase Inhibitor Clade F1 (SERPINF1), and Angiopoietin 1 (ANGPT1) | ANGPTL1, Platelet Factor 4 (PF4), and fms related tyrosine kinase 4 (FLT4) | Bcl-2, CCR4, and Vasohibin-1 (VASH-1)

Reference: patent US8772243B2, “Methods for predicting the response to anti-cancer treatment with an agonist of TLR7 or an agonist of TLR8” (Inserm (Institut National de la Sante et de la Recherche …, priority 2008, dated 2014)
